In patent EP3441077A1, “PHARMACEUTICAL PRODUCT FOR TREATING ANKYLOSING SPONDYLITIS AND COMBINED IMMUNE DEFECT, AND PREPARATION AND APPLICATION THEREOF” (Beijing Lu De Kai Qi Co., Ltd., priority 2016, dated 2017):
Read-outs that look alike come from different tables or passages of the source. Marks after values point to notes of the source that are not given here.

Assays:
[1] = test system: patients with ankylosing spondylitis; experiment: Clinical trial in patients with ankylosing spondylitis; format: in vivo, human; conditions: for Cure / Effective / Improved / Ineffective / excellence / upturn: 100 patients per group
Experimental: Clinical trials were performed in patients with ankylosing spondylitis. The criteria for inclusion are as follows: • (1) The New York Standard for Ankylosing Spondylitis revised in 1984 is met. • (2) The diagnostic criteria for the "renal deficiency and cold syndrome" of Ankylosing Spondylitis in Traditional Chinese Medicine is met. It is obtained by reference to the "Guidelines for Clinical Research of New Pharmaceutical products for Treating Arthralgia" and combined with the clinical experience of Professor Jiao Shude and Professor Yan Xiaoping. […] The five criteria for IBP are: age of onset <40 years old; insidious onset; improvement after exercise; no improvement after rest; and nocturnal pain (improvement after getting up). If the patient meets 4 of them, he or she can be confirmed to have IBP (sensitivity 77.0%, specificity 91.7%). […] Treatment method: a randomized control method was used. There are 100 patients in the test group, 100 patients in the control group 1, and 100 patients in the control group 2. […] Control group 1: the patients were orally administrated with loxoprofen sodium from Sankyo Co. Ltd., Japan twice a day in the morning and evening, and 3 months is a course of treatment. Control group 2: the patients were orally administrated with the traditional Chinese medicine for treating ankylosing spondylitis prepared in the examples of CN102091137B twice a day in the morning and evening, and 3 months is a course of treatment. No other medications for ankylosing spondylitis is administered during the course of treatment. In particular, the traditional Chinese medicine for treating ankylosing spondylitis prepared in the examples of CN102091137B is prepared as following: weighing the raw materials that contain in the formula ,that is 10 g of rhizoma cibotii, 15 g of pilose antler, 10 g of dipsacus asper, 5 g of scorpio, 15 g of kudzu vine root, 12 g of chuanxiong rhizome, 5 g of caulis spatholobi, 15 g of white paeony root, 15 g of common peony root, 10g of safflower carthamus, 15 g of medicinal cyathula root and 10 g of white mustard seed, adding 1500 ml of water, decocting with slow fire to concentrate the medicine liquid to 250 ml, filtering dregs of a decoction and preparing a decoction. Table 8 Indicators for efficacy evaluation in this clinical trial [table] […] Table 9 Statistical results of clinical trial After taking three courses of treatment, all the patients in the three groups stopped taking medication, and whether the symptoms were aggravated or slowed down was observed one month, three months, and twelve months after pharmaceutical product withdrawal. If the symptoms after a period of drug withdrawal were more serious than the symptoms at the time of drug withdrawal, it was labeled as "-", otherwise labeled as "+". If there were two grades in the difference, it was labeled as […]. For example, if the therapeutic effect of patient A at the time of drug withdrawal was improved, and the therapeutic effect twelve months after drug withdrawal was Ineffective, it was labeled as "-2". Table 10 Statistical results of clinical trial after pharmaceutical product withdrawal

[2] = test system: mouse bone marrow polychromatic erythrocytes; conditions: 50 mg/kg•bw, positive control; for Number of micronucleus: 5000 cells examined; for Micronucleus rate (‰): P<0.01 vs negative control
Experimental: Test animals: The healthy Kunming mice provided by the Experimental Animal Center of the National Institute for the Control of Pharmaceutical and Biological Products are selected. • 3. Mouse bone marrow polychromatic erythrocyte micronucleus assay The assay was carried out via oral gavage and the administration was performed twice at intervals of 24 hr. 50 mice weighing 25-30 g are randomly divided into 5 groups according to body weight, 10 in each group, half male and half female. […] The doses of the pharmaceutical product for treating ankylosing spondylitis for combined immunodeficiency according to the present invention are 2.50, 5.00, and 10.00 g/kg•bw, respectively, which were adjusted to the desired concentration with distilled water. The animals were sacrificed by cervical dislocation six hours after the last administration of the pharmaceutical product for treating ankylosing spondylitis for combined immunodeficiency according to the present invention. The bone marrow of sternum was diluted with calf serum, smeared, fixed in methanol, and stained with Giemsa. Under the light microscope, 1000 polychromatic erythrocytes (PRC) were measured per animal, and the incidence of micronucleus was determined by the permillage of micronucleus-containing PRC and statistical process is performed.

[3] = test system: male mice; conditions: 40 mg/kg•bw, positive control
Experimental: Sperm abnormality assay in mice 50 sexually mature male mice weighing 30-35 g is randomly divided into 5 groups. […] The doses of the pharmaceutical product for treating ankylosing spondylitis for combined immunodeficiency according to the present invention is 1.25, 2.50, and 5.00 g/kg•bw, respectively, which were adjusted to the desired concentration with distilled water. The mice were administered via oral gavage once a day for 5 days, and the animals were sacrificed 30 days after the last gavage. The epididymis is sectioned and stained with eosin. Five animals were measured in each group and 1000 spermatozoa with intact structural were measured per animal, by which the incidence of sperm abnormality (in percentage) was calculated and statistical process is performed. […] Table 3 Statistical results of sperm abnormality assay in mice

[4] = At the time of drug withdrawal (after three courses)
[5] = One course of treatment (3 months), oral twice a day, graded per Table 8
[6] = One month after drug withdrawal
[7] = Three courses of treatment, oral twice a day, graded per Table 8
[8] = Twelve months after drug withdrawal
[9] = three months after drug withdrawal

For CC(C(=O)O)c1ccc(CC2CCCC2=O)cc1 (stereo not shown) [loxoprofen sodium], the Cure [1, 4] was 0 case, the Effective [1, 4] was 36 case and the Improved [1, 4] was 3 case. It also gave an Ineffective [1, 4] of 61 case, a Cure [1, 5] of 0 case and an Ineffective [1, 5] of 82 case. It also gave an excellence [1, 5] of 0 case, an upturn [1, 5] of 18 case and a Cure [1, 6] of 0 case. It also gave an Effective [1, 6] of 31 case, an Improved [1, 6] of 2 case and an Ineffective [1, 6] of 67 case. For the same molecule, the Cure [1, 7] was 0 case, the Ineffective [1, 7] was 61 case and the excellence [1, 7] was 3 case. It also gave an upturn [1, 7] of 36 case, a Cure [1, 8] of 0 case and an Effective [1, 8] of 9 case. The Improved [1, 8] was 0 case, the Ineffective [1, 8] was 91 case and the “course of the therapeutic effect after withdrawal (in words)” value ([1]; after three courses of treatment and then withdrawal) was “had more disease relapse”. The Cure [1, 9] was 0 case, the Effective [1, 9] was 20 case and the Improved [1, 9] was 0 case. For the same molecule, the Ineffective [1, 9] was 80 case.
O=P1(N(CCCl)CCCl)NCCCO1 (stereo not shown) [cp, cyclophosphamide] was tested, and the Number of micronucleus ([2]; Female mice) was 150, the “Micronucleus rate (‰)” value ([2]; Female mice) was 30.0* ‰ and the Number of micronucleus ([2]; Male mice) was 167. For the same molecule, the “Micronucleus rate (‰)” value ([2]; Male mice) was 33.4* ‰, the “Number of abnormal sperms” value ([3]; 5000 sperms examined) was 487 and the “Rate of sperm abnormality (%)” value ([3]; P<0.01 vs negative control) was 9.74* %.
